The values that follow come from ChEMBL document CHEMBL1221190, “Therapeutic intervention based on protein prenylation and associated modifications” (Nat Chem Biol, 2006).

Experiment [1] can be described thus: Inhibition of GGTase1.
Experiment [2] is described as follows: Selectivity ratio of IC50 for farnesyltransferase to IC50 for GGTase1.

With `CSCCc1c(-c2cccnc2)nn(-c2ccc(Cl)c(Cl)c2)c1OCCCC(=O)N[C@@H](Cc1ccccc1)C(N)=O`, in experiment [1], inhibition was half-maximal at 8 nM (IC50). Also, in experiment [2], the Ratio IC50 amounted to 250.
